Source: patent publication US8323708B2, “Poultry meat and eggs comprising beneficial fatty acids” (Monsanto Technology LLC, priority 2009, dated 2012)

Columns and labels:
[1] = Laying hen study: long chain fatty acid composition of eggs; type: in vivo, laying hens; details: for ALA (C18:3n-3) / DHA (C22:6n-3) / DPA (C22:5 n-3) / EPA (C20:5n-3) / Omega 6/Omega 3 ratio / Total omega 3's / SDA (C18:4n-3): total egg
Protocol: A study was conducted to determine whether laying hens fed a diet enriched in stearidonic acid could produce eggs with elevated levels of beneficial omega-3 fatty acids including EPA and DHA. Mature laying hens […] were randomly allotted to seven dietary treatments (16 hens/treatment) and were fed diets containing the following levels of n-3 fatty acids as described in Table 28 for four weeks. Sixteen birds were given each treatment. Four birds were randomly selected out of the 16 per treatment to obtain eggs during week 4 for fatty acid composition. […] The laying hens had ad libitum access to feed and water. The composition of the diets (Table 29) and premixes (Table 30) are provided below. To help prevent oxidation of the fatty acids, 0.05% ethoxyquin (Rendox) was added to each premix. Premixes were manufactured within 3 days of arrival of ethyl esters. To limit the oxidation associated with storage, diets were manufactured once and stored in a refrigerated cooler at 4° C. during the duration of the study. Eggs collected during […] (days 22-28) were maintained under refrigerated conditions until all eggs for that week were collected. Eggs were sorted by hen and treatment. Two eggs per hen from 4 hens per treatment were taken. The two eggs were weighed individually, cracked and the shell weighed. The difference between fresh egg and shell represented liquid egg weight and served as the basis for further calculations. The liquid fraction from each of the two eggs per hen were combined in a sample cup and homogenized. Samples were analyzed for fatty acids by gas chromatography.

[2] = 42 day broiler study: fatty acid composition of breast meat; type: in vivo, broiler chickens (Ross x Ross 308)
Protocol: (§1) A 42 day study was conducted to determine whether broiler chickens fed a diet containing SDA could produce meat with elevated levels of omega-3 fatty acids as compared to chickens fed diets containing DHA and fish oil.
(§2) Fifty six pens of 25 male birds (Ross×Ross 308) per pen were used. Day old birds were obtained and immediately placed in floor pens containing (used) pine wood shavings, hanging tube feeders and nipple-waterers or plassons. Eight pens were each fed one of seven treatments for 42 days. The experiment was divided into four growth phases (0-7 days, 7-21 days, 21-35 days, and 35-42 days). The experimental diets were crumbled for the first two phases (0-21 days) and pelleted thereafter.
(§3) Diets consisted of 93% base mix (Table 10) plus 7% Test Oil Mix (Table 11). The diets supplied 3008, 3083, 3183 and 3208 kcal/kg of metabolizable energy for the pre-starter, starter, grower and finisher phases, respectively.
(§4) A randomized block design was used. Treatments were randomly assigned to pens such that each of the seven treatments was replicated 8 times (8 pens with each pen containing 25 birds).
(§5) On day 42, following a 10-hour period of feed withdrawal, 8 birds per pen (64 birds/treatment; 7 treatments; 448 birds total) were randomly selected and processed using commercial processing procedures. Carcasses were cut-up and de-boned at 4 hours postmortem. Carcass and parts yields were calculated and meat samples (breast and thigh) were collected for meat quality, fatty acid analysis, and sensory evaluation.

[3] = 21 day broiler study: long chain fatty acid composition of thigh meat; type: in vivo, broiler chickens; details: day 21-42; for ALA (C18:3n-3) / DHA (C22:6n-3) / DPA (C22:5 n-3) / EPA (C20:5n-3) / Omega 6/Omega 3 ratio / SDA (C18:4n-3) / Total omega 3's: boneless skinless thigh meat
Protocol: (§6) A 21 day study was conducted to determine whether broiler chickens fed a diet containing SDA could produce meat with elevated levels of omega-3 fatty acids including EPA and DHA.
(§7) Fifty pens of four birds per pen were used. There were 25 pens of males and 25 pens of females. Five pens of males and five pens of females were each fed one of five treatment diets from day 21 to 42 days of age. Prior to day 21 all birds were fed a standard 22% protein starter diet formulated to meet NRC (1994) nutrient requirements (shown in Table 16 as “S” diet). The feed prepared was feed as a crumble.
(§8) The test diets were prepared and fed in mash form. All broilers had ad libitum access to feed and water for the duration of the 21 day study. The composition of the diets (Table 4) and premixes (Table 5) are provided below.
(§9) To help prevent oxidation of the fatty acids, 0.05% ethoxyquin (Rendox) was added to each premix. Premixes were manufactured within 3 days of arrival of ethyl esters. To limit oxidation associated with storage, diets were manufactured once and stored in a refrigerated cooler at 4° C. during the duration of the study.
(§10) For male pens only, four out of the five pens were randomly selected. Two birds from each of these pens were randomly selected (eights birds per treatment). The right and left thigh and right and left breast from these 40 birds were bagged and labeled and frozen. The right breast and thigh samples were analyzed for shelf life stability and the left skinless breast and left boneless, skinless thigh from these same birds were analyzed for fatty acid composition.

[4] = 42 day broiler study: fatty acid composition of thigh meat and attached skin; type: in vivo, broiler chickens (Ross x Ross 308)
Protocol: as §1, §2, §3, §4, §5

[5] = 21 day broiler study: long chain fatty acid composition of skinless breast meat; type: in vivo, broiler chickens; details: day 21-42
Protocol: as §6, §7, §8, §9, §10

[6] = 0.27% in feed (as ethyl esters), day 0-42
[7] = thigh meat and attached skin, 0.27% in feed (as ethyl esters), day 0-42

## CC/C=C\C/C=C\C/C=C\CCCCCCCC(=O)OCC [ALA Ethyl Ester]
[1]; 0.932% of diet
  ALA (C18:3n-3): 267.5 mg/100 g
  DHA (C22:6n-3): 132.5 mg/100 g
  DPA (C22:5 n-3): 22.5 mg/100 g
  EPA (C20:5n-3): 7.5 mg/100 g
  Omega 6/Omega 3 ratio: 2.9
  Total omega 3's: 430 mg/100 g
[1]; 1.864% of diet
  ALA (C18:3n-3): 622.5 mg/100 g
  DHA (C22:6n-3): 155 mg/100 g
  DPA (C22:5 n-3): 32.5 mg/100 g
  EPA (C20:5n-3): 12.5 mg/100 g
  Omega 6/Omega 3 ratio: 1.5
  SDA (C18:4n-3): 2.5 mg/100 g
  Total omega 3's: 825 mg/100 g

## CC/C=C\C/C=C\C/C=C\CCCCCCCC(=O)OCC [ALA, alpha-Linolenic Acid - Ethyl Esters]
[1]; dietary enrichment of laying hens
  accumulation of SDA or DPA in eggs: no significant accumulation

## CC/C=C\C/C=C\C/C=C\C/C=C\C/C=C\C/C=C\CCC(=O)OCC [DHA Ethyl Ester]
[2]; [6]
  ARA C20:4n-6: 3.01 % of fatty acids
  C16:0: 21.82 % of fatty acids
  C16:1: 3.09 % of fatty acids
  C18:0: 8.76 % of fatty acids
  C18:1: 30.41 % of fatty acids
  C18:2: 22.94 % of fatty acids
  C22:4n-6: 0.53 % of fatty acids
  DHA (C22:6n-3): 2.78 % of fatty acids
  DPA (C22:5 n-3): 0.48 % of fatty acids
  EPA (C20:5n-3): 0.16 % of fatty acids
  SDA (C18:4n-3): 0.59 % of fatty acids
  Total C18:3: 0.66 % of fatty acids
[2]; % of fatty acids, 0.27% in feed
  Total SDA, EPA, DPA and DHA concentrations: 4.00%
[1]; 0.163% of diet
  ALA (C18:3n-3): 40 mg/100 g
  DHA (C22:6n-3): 177.5 mg/100 g
  DPA (C22:5 n-3): 10 mg/100 g
  Omega 6/Omega 3 ratio: 5.7
  Total omega 3's: 227.5 mg/100 g
[1]; 0.326% of diet
  ALA (C18:3n-3): 40 mg/100 g
  DHA (C22:6n-3): 247.5 mg/100 g
  DPA (C22:5 n-3): 10 mg/100 g
  EPA (C20:5n-3): 10 mg/100 g
  Omega 6/Omega 3 ratio: 3.8
  Total omega 3's: 307.5 mg/100 g
[3]; ethyl ester 0.163% of diet
  ALA (C18:3n-3): 70 mg/100 g
  DHA (C22:6n-3): 67.5 mg/100 g
  DPA (C22:5 n-3): 15 mg/100 g
  EPA (C20:5n-3): 10 mg/100 g
  Omega 6/Omega 3 ratio: 8.4
  SDA (C18:4n-3): 10 mg/100 g
  Total omega 3's: 172.5 mg/100 g
[3]; ethyl ester 0.326% of diet
  ALA (C18:3n-3): 75 mg/100 g
  DHA (C22:6n-3): 125 mg/100 g
  DPA (C22:5 n-3): 20 mg/100 g
  EPA (C20:5n-3): 27.5 mg/100 g
  Omega 6/Omega 3 ratio: 5.7
  SDA (C18:4n-3): 10 mg/100 g
  Total omega 3's: 257.5 mg/100 g
[3]; supplemented birds
  total omega 3 fatty acids in thigh meat relative to breast meat: 2 times
[4]; [7]
  ARA C20:4n-6: 0.81 % of fatty acids
  C16:0: 21.71 % of fatty acids
  C16:1: 4.48 % of fatty acids
  C18:0: 6.31 % of fatty acids
  C18:1: 35.94 % of fatty acids
  C18:2: 25.99 % of fatty acids
  C20:4n-3: 0.03 % of fatty acids
  C22:4n-6: 0.16 % of fatty acids
  DHA (C22:6n-3): 0.73 % of fatty acids
  DPA (C22:5 n-3): 0.14 % of fatty acids
  EPA (C20:5n-3): 0.11 % of fatty acids
  SDA (C18:4n-3): 0.24 % of fatty acids
  Total C18:3: 1.03 % of fatty acids
[4]; thigh meat, 0.27% in feed
  Total SDA, EPA, DPA and DHA concentrations: 1.2%
[5]; ethyl ester 0.163% of diet
  ALA (C18:3n-3): 10 mg/100 g
  DHA (C22:6n-3): 55.0 mg/100 g
  DPA (C22:5 n-3): 10 mg/100 g
  EPA (C20:5n-3): 10 mg/100 g
  Omega 6/Omega 3 ratio: 2.9
  Total omega 3's: 85.0 mg/100 g
[5]; ethyl ester 0.326% of diet
  ALA (C18:3n-3): 10 mg/100 g
  DHA (C22:6n-3): 80 mg/100 g
  DPA (C22:5 n-3): 10 mg/100 g
  EPA (C20:5n-3): 10 mg/100 g
  Omega 6/Omega 3 ratio: 1.9
  Total omega 3's: 110 mg/100 g

## CC/C=C\C/C=C\C/C=C\C/C=C\CCCCC(=O)OCC [SDA Ethyl Ester]
[1]; 0.416% of diet
  ALA (C18:3n-3): 42.5 mg/100 g
  DHA (C22:6n-3): 150 mg/100 g
  DPA (C22:5 n-3): 35 mg/100 g
  EPA (C20:5n-3): 10 mg/100 g
  Omega 6/Omega 3 ratio: 5.0
  SDA (C18:4n-3): 10 mg/100 g
  Total omega 3's: 247.5 mg/100 g
[1]; 0.832% of diet
  ALA (C18:3n-3): 55 mg/100 g
  DHA (C22:6n-3): 182.5 mg/100 g
  DPA (C22:5 n-3): 60 mg/100 g
  EPA (C20:5n-3): 22.5 mg/100 g
  Omega 6/Omega 3 ratio: 3.7
  SDA (C18:4n-3): 25 mg/100 g
  Total omega 3's: 360 mg/100 g
[3]; ethyl ester 0.416% of diet
  ALA (C18:3n-3): 82.5 mg/100 g
  DHA (C22:6n-3): 20 mg/100 g
  DPA (C22:5 n-3): 37.5 mg/100 g
  EPA (C20:5n-3): 30 mg/100 g
  Omega 6/Omega 3 ratio: 4.4
  SDA (C18:4n-3): 187.5 mg/100 g
  Total omega 3's: 362.5 mg/100 g
[3]; ethyl ester 0.832% of diet
  ALA (C18:3n-3): 86.7 mg/100 g
  DHA (C22:6n-3): 20 mg/100 g
  DPA (C22:5 n-3): 50 mg/100 g
  EPA (C20:5n-3): 50 mg/100 g
  Omega 6/Omega 3 ratio: 2.7
  SDA (C18:4n-3): 386.7 mg/100 g
  Total omega 3's: 593.3 mg/100 g
[5]; ethyl ester 0.416% of diet
  ALA (C18:3n-3): 10 mg/100 g
  DHA (C22:6n-3): 10 mg/100 g
  DPA (C22:5 n-3): 22.5 mg/100 g
  EPA (C20:5n-3): 20 mg/100 g
  Omega 6/Omega 3 ratio: 2.9
  SDA (C18:4n-3): 22.5 mg/100 g
  Total omega 3's: 85 mg/100 g
[5]; ethyl ester 0.832% of diet
  ALA (C18:3n-3): 10 mg/100 g
  DHA (C22:6n-3): 10 mg/100 g
  DPA (C22:5 n-3): 30 mg/100 g
  EPA (C20:5n-3): 27.5 mg/100 g
  Omega 6/Omega 3 ratio: 2.0
  SDA (C18:4n-3): 40 mg/100 g
  Total omega 3's: 117.5 mg/100 g
